The text below walks through data of publication PMC4770715, “LIM kinase inhibitors disrupt mitotic microtubule organization and impair tumor cell proliferation” (Oncotarget, 2015).

Structures are written as SMILES.

Common to all, as to assay: biochemical
Design in all cases: KINOMEscan active-site competition binding, percent of control (100 = no competition)
Common to all, as to conditions: competition binding, percent control

One assay addresses BRSK1 (Homo sapiens, UniProt Q8TDC3). The source says:
(§1) Given the potential for the use of LIMK inhibitors as cancer chemotherapeutics, a high-throughput drug discovery and medicinal chemistry program was undertaken. Details of the screening methodology and description of initial hit matter were described in [38]. […] Details of their chemical synthesis are described in Charles et al.. […] These and additional physiochemical parameters are in Supplemental Table 5. […] Kinases inhibited >25% to 50% have yellow circles, 51% to 75% have orange circles, and >76% have red circles. In each case, the size of the circle is proportional to percentage inhibition. LIMK1 and LIMK2 positions are indicated in blue. Illustration reproduced courtesy of Cell Signaling Technology, Inc. (www.cellsignal.com). B. CRT0105950 structure and kinome selectivity mapping as described above. C.

For a further assay, the target named is EGFR(L747-T751del,Sins) (Homo sapiens, UniProt P00533, DEL747-750/T751S).
Source text: as §1

Another assay concerns the target TAOK3 (Homo sapiens, UniProt Q9H2K8).
Source text: as §1

For another assay, the target named is FLT3(N841I) (Homo sapiens, UniProt P36888, N841I).
Source text: as §1

A further assay concerns the target EIF2AK1 (Homo sapiens, UniProt Q9BQI3).
Source text: as §1

A further assay has as its target CDKL5 (Homo sapiens, UniProt O76039).
Source text: as §1

A further assay concerns the target CAMK2G (Homo sapiens, UniProt Q13555).
Source text: as §1

The target of the next assay is MTOR (Homo sapiens, UniProt P42345).
Source text: as §1

Assay [1] deals with T1, RSK1(Kin.Dom.2-C-terminal) (Homo sapiens, UniProt Q15418).
T1 construct: gene RPS6KA1; Kin.Dom.2-C-terminal
Source text: as §1

The target of a further assay is CLK1 (Homo sapiens, UniProt P49759).
CLK1, sequence (P49759 whole entry): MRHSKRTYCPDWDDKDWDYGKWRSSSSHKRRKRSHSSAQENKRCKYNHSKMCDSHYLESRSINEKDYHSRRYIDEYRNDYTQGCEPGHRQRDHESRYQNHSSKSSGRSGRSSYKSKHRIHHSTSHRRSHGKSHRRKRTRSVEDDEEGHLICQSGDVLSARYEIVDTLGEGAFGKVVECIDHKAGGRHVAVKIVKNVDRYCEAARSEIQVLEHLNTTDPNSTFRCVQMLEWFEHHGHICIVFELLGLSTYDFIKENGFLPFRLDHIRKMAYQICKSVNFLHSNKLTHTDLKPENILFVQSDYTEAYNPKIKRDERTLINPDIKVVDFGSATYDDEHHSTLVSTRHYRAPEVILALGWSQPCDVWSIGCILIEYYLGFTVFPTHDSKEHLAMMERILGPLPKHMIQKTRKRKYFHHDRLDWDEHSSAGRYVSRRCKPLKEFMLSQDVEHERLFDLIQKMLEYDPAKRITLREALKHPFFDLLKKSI
Source text: as §1

Another assay addresses FGFR1 (Homo sapiens, UniProt P11362).
Source text: as §1

The target in the next assay is FGFR2 (Homo sapiens, UniProt P21802).
Source text: as §1

Another assay deals with T2, MST4 (Homo sapiens, UniProt Q9P289).
T2 construct: gene STK26
Source text: as §1

For the next assay, the target named is T3, DRAK1 (Homo sapiens, UniProt Q9UEE5).
T3 construct: gene STK17A
Source text: as §1

The target of the next assay is MELK (Homo sapiens, UniProt Q14680).
Source text: as §1

A further assay concerns the target T4, PRKR (Homo sapiens, UniProt P19525).
T4 construct: gene EIF2AK2
Source text: as §1

In assay [2] the target is T5, RSK1(Kin.Dom.1-N-terminal) (Homo sapiens, UniProt Q15418).
T5 construct: gene RPS6KA1; Kin.Dom.1-N-terminal
Source text: as §1

A further assay deals with AURKB (Homo sapiens, UniProt Q96GD4).
Source text: as §1

The target in assay [3] is T6, ABL1(F317I)-phosphorylated (Homo sapiens, UniProt P00519, F317I).
T6 construct: phosphorylated
Source text: as §1

A further assay deals with T7, CDK11 (Homo sapiens, UniProt Q9BWU1).
T7 construct: gene CDK19
Source text: as §1

In another assay the target is CDK7 (Homo sapiens, UniProt P50613).
CDK7, sequence (P50613 whole entry): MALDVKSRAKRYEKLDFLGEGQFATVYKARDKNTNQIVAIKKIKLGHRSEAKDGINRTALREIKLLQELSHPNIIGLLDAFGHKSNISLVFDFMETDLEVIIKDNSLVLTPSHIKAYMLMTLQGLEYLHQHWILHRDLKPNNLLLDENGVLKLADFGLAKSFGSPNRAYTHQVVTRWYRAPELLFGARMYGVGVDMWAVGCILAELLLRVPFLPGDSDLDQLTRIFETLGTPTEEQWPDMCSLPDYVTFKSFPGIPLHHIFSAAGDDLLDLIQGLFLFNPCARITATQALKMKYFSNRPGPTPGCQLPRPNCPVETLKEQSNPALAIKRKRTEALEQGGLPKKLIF
Source text: as §1

Another assay addresses MYLK (Homo sapiens, UniProt Q15746).
Source text: as §1

CDKL5, sequence (O76039 whole entry): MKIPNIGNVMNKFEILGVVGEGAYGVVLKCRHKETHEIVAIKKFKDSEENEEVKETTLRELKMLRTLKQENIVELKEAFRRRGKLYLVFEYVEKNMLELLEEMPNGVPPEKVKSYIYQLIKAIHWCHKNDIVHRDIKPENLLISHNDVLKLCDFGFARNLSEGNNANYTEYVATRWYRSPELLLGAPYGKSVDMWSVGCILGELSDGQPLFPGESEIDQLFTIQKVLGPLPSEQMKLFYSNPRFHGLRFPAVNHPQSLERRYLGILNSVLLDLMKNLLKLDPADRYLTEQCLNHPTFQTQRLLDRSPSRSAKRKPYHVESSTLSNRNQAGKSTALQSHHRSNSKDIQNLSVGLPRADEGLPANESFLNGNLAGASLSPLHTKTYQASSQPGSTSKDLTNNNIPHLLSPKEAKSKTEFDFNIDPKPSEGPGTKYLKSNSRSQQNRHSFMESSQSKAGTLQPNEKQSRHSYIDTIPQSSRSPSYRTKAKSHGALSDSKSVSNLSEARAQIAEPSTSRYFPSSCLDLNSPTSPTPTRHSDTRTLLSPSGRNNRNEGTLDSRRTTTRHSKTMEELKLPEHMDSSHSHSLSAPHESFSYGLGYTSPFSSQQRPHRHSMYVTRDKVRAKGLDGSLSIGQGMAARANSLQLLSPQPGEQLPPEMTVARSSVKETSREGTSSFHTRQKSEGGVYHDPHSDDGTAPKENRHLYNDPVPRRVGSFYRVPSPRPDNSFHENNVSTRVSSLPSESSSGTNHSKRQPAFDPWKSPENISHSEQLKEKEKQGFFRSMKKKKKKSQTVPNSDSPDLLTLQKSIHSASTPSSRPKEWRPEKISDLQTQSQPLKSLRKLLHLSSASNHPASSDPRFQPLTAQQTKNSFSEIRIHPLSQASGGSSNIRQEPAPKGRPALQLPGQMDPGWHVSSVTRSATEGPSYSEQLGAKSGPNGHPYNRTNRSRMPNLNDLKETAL
FGFR1, sequence (P11362 whole entry): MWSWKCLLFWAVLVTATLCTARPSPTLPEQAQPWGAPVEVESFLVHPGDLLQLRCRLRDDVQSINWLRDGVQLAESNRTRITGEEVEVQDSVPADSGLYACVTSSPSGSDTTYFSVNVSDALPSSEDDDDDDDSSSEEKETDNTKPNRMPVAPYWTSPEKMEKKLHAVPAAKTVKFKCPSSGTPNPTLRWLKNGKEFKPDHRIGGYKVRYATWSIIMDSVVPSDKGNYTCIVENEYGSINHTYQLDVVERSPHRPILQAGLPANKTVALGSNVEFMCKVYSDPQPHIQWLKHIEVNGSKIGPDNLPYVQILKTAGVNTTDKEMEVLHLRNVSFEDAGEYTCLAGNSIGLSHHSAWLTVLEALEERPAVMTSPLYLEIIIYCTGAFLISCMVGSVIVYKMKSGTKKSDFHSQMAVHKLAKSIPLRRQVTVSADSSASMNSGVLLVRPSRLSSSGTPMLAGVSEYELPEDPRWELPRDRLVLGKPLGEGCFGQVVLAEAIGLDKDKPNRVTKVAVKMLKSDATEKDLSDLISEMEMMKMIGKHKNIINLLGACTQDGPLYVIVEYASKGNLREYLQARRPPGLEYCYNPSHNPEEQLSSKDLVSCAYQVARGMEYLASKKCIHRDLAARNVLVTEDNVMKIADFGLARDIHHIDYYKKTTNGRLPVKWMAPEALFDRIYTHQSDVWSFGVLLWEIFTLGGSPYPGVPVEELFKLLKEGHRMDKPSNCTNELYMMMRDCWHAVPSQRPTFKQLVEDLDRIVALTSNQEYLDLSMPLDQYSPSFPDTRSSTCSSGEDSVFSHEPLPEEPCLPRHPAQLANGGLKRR
T4 sequence (P19525 whole entry): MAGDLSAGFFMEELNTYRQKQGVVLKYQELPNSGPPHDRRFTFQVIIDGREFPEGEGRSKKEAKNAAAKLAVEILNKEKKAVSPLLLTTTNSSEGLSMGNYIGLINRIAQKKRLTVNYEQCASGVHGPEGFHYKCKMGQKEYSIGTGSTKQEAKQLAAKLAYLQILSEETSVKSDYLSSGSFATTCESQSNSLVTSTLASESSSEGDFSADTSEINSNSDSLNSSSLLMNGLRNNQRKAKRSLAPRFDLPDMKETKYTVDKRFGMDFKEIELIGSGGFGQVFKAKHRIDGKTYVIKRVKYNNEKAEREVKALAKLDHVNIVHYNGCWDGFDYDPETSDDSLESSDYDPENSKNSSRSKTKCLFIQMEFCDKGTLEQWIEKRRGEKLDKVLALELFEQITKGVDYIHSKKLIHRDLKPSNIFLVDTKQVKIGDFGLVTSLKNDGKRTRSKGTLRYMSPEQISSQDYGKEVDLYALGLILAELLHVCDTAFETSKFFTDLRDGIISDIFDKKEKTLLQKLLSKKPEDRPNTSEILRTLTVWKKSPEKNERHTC
MYLK, sequence (Q15746 whole entry): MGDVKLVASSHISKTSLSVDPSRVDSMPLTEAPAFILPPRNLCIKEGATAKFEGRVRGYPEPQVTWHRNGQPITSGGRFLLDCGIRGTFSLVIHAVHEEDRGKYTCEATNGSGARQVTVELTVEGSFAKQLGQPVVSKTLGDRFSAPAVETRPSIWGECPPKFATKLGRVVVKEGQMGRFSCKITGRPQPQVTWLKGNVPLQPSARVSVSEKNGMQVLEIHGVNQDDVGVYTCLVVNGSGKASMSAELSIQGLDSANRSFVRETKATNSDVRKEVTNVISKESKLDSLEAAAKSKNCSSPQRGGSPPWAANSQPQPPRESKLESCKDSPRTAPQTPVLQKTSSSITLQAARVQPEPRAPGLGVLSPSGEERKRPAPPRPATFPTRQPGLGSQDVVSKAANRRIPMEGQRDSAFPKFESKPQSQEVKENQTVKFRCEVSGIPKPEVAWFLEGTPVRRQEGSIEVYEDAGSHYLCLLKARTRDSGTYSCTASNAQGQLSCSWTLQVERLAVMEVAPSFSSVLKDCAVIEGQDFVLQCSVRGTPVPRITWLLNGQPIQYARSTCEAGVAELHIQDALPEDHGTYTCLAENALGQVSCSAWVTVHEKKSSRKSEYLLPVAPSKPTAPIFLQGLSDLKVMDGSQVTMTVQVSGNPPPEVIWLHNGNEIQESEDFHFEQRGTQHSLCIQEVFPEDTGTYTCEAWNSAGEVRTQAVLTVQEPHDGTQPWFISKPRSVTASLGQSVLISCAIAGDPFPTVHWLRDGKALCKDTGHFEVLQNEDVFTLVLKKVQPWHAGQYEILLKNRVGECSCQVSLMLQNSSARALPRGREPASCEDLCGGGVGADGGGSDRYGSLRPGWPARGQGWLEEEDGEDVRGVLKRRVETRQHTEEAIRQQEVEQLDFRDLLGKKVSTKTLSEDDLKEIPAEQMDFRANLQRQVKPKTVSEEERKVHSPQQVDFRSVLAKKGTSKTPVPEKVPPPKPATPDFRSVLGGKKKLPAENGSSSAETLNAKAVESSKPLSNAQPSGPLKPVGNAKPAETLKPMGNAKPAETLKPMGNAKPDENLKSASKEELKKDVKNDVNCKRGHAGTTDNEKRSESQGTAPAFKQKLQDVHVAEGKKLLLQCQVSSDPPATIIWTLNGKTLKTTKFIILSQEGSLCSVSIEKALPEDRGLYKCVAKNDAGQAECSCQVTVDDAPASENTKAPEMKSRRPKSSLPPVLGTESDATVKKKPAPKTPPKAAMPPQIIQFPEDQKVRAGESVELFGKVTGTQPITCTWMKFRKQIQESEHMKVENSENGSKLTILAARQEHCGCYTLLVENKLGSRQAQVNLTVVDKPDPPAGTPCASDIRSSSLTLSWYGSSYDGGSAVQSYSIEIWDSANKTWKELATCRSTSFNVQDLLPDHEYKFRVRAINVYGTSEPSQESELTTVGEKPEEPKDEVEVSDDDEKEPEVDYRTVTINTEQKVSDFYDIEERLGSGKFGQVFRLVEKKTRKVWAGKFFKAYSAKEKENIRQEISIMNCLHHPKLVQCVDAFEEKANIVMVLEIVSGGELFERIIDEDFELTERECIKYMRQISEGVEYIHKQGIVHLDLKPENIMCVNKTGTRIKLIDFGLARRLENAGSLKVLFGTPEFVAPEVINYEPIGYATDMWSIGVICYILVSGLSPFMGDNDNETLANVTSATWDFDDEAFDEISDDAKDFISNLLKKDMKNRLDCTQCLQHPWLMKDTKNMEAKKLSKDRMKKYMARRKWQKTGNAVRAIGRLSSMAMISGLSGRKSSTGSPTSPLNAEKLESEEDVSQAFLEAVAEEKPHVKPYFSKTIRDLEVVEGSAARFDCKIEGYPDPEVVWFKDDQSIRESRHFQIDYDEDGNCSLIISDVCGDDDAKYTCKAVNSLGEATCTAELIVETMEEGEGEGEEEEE

`COc1ccc(-c2cnccc2-c2cnc(NC(=O)C(C)C)s2)c(C(F)(F)F)c1` [CRT0105446, N-{5-[3-(4-Methoxy-2-trifluoromethyl-phenyl)-pyridin-4-yl]-hiazol-2-yl}-isobutyramide]: the remaining binding at 10 µM came to 27% at BRSK1; 100% on EGFR(L747-T751del,Sins); 96% on TAOK3; 22% on FLT3(N841I); 100% at EIF2AK1; 100% on CDKL5. Moreover, the remaining binding at 10 µM came out at 80% at CAMK2G; 64% at MTOR; 43% in assay [1]; 85% at CLK1; 98% at FGFR1; 100% at FGFR2. Moreover, the remaining binding at 10 µM came to 61% at MST4; 81% on DRAK1; 100% on MELK; 81% at PRKR; 56% in assay [2]; 80% at AURKB. The remaining binding at 10 µM in assay [3] amounted to 76%; at CDK11, 34%; at CDK7, 5.8%; at MYLK, 100%.

In the case of `Cc1ccc(-c2cnccc2-c2cnc(Nc3ccc(O)cc3)s2)c(Cl)c1` [CRT0105950, 4-{5-[3-(2-Chloro-4-methyl-phenyl)-pyridin-4-yl]-thiazol-2-ylamino}-phenol], the remaining binding at 10 µM was 30% at BRSK1; 68% on EGFR(L747-T751del,Sins); 28% at TAOK3; 0% on FLT3(N841I); 97% at EIF2AK1; 99% at CDKL5. Also, the remaining binding at 10 µM was determined as 49% on CAMK2G; 35% at MTOR; 27% in [1]; 0.4% at CLK1; 5% at FGFR1; 17% at FGFR2. In addition, the remaining binding at 10 µM turned out to be 37% on MST4; 100% at DRAK1; 11% on MELK; 53% on PRKR; 0.05% in assay [2]; 0.15% at AURKB. The remaining binding at 10 µM was 87% in assay [3], 2.3% on CDK11, 32% at CDK7 and 28% on MYLK.
